Peptide text beside a SMILES is read from it.
Key:
[1] = test system: SaOS cells; assay: cAMP production in SaOS cells, dose-response; type: cell-based; settings: Table 3; read-out: dose-response cAMP in SaOS (EC50)
[2] = test system: LLCPK1-B64 cells or SaOS-2 cells; assay: cAMP screen of substituted PTHrP(1-28) analogs (% parent); type: cell-based; settings: parent PTHrP(1-28)NH
Method in brief: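 LLCPK1-B64 or SaOS-2 cells exposed to peptide analogs at 3×10^−9M with IBMX for 30 minutes at room temperature, then cAMP measured. Each analog's response expressed as percentage of that for parent PTHrP(1-28).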

[3] = molecular target: T1, human PTHR, G protein-coupled conformation (RG) (Homo sapiens, UniProt Q03431); assay: Competition binding to RG conformation of hPTHR (COS-7 membranes, GαsND, 125I-[Aib1,3,M]PTH(1-15) tracer)
T1 construct: expressed in transfected cells; host or cells: COS-7, transient (Fugene-6); membranes
T1 sequence (Q03431 27-593): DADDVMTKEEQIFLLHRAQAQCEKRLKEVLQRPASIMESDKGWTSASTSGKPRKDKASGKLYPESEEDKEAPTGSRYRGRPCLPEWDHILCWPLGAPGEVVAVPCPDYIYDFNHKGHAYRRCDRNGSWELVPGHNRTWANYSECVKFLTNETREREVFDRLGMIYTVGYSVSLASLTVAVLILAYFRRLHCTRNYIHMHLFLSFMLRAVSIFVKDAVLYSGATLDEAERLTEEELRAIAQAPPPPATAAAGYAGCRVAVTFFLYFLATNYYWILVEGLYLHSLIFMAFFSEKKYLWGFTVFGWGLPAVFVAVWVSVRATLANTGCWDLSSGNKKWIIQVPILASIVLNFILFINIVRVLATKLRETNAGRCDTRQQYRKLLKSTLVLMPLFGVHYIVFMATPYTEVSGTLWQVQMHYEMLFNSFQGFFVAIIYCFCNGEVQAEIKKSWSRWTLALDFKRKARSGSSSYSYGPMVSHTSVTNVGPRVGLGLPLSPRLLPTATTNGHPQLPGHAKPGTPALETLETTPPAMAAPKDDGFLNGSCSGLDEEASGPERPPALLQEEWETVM

[4] = molecular target: T2, human PTHR, G protein-uncoupled conformation (R^0) (Homo sapiens, UniProt Q03431); assay: Competition binding to R0 conformation of hPTHR (COS-7 membranes, GTPγS, 125I-PTH(1-34) tracer); settings: parent PTHrP(1-28)NH
T2 construct: expressed in transfected cells; host or cells: COS-7, transient (Fugene-6)
T2 sequence (Q03431 27-593): T1 sequence (Q03431 27-593)
Method in brief: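 Bound versus free radioligand was separated by vacuum filtration after 90 min incubation of COS-7 hPTHR membranes (20-100 μg/mL) with tracer and competing peptides. Non-specific binding came from a saturating unlabeled analog.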

[5] = test system: MC3T3-E1 cells; assay: cAMP in MC3T3-E1 cells, dose-response; type: cell-based; settings: Table 3; read-out: dose-response cAMP in MC3T3-E1 (EC50)
Experimental: In the 1-30 scaffold, Gly, Ser, Leu, Asn, Gln, Trp, Glu, and Lys were substituted at position 29; Gly, Ser, Leu, Asn, Asp, Trp, and Lys were substituted at position 30; and Ser, Leu, Asn, Val, Trp, Glu, and Lys were substituted at position 31. […] These peptides were tested for cAMP activity in MC3T3-E1 cells.

[6] = test system: MC3T3-E1 cells; assay: cAMP screen of EALK-PTHrP(1-31)/(1-34) variants (% parent); type: cell-based
Source text: FIGS. 32A and 32B are graphs showing the effects of amino acid substitutions in the 29-31 region of EALK-PTHrP(1-31) (SEQ ID NO:94) (FIG. 32A) and the 29-33 region of EALK-PTHrP(1-34) (SEQ ID NO:112) (FIG. 32B) on induction of cAMP activity in MC3T3-E1 cells. Substitutions at position 29 for EALK-PTHrP(1-31) were G^29 to S^29 (SEQ ID NO:95-96), L^29 (SEQ ID NO:176), and N^29 to K^29 (SEQ ID NO:97-101). Substitutions at position 30 for EALK-PTHrP(1-31) were G^30 to D^30 (SEQ ID NO:102-106), W^30 (SEQ ID NO:177), and K^30 (SEQ ID NO:107). […] Substitutions for EALK-PTHrP(1-34) A^30 to A^33 (SEQ ID NO:113-116) and EALK-PTHrP(1-28)/PTH(29-34) (SEQ ID NO:117).
To optimize the activity of the EALK-PTHrP peptides, we generated EALK-PTHrP([…]) and PTHrP(1-34) variants with substitutions in the 29-33 region. In the 1-30 scaffold, Gly, Ser, Leu, Asn, Gln, Trp, Glu, and Lys were substituted at position 29; Gly, Ser, Leu, Asn, Asp, Trp, and Lys were substituted at position 30; and Ser, Leu, Asn, Val, Trp, Glu, and Lys were substituted at position 31. […] A predicted advantage of these longer-length peptides, relative to the PTHrP(1-30) scaffold, is that they will have longer a longer half-life in circulation due to slower clearance. The C-terminal substitutions were thus designed to provide the added chain length, but to avoid increasing R^0 binding affinity, which occurs when the native PTHrP(29-34) region (SEQ ID NO:186) is installed. These peptides were tested for cAMP activity in MC3T3-E1 cells.

[7] = parent E18,A22,L25,K26-PTHrP(1-34)OH
[8] = parent E18,A22,L25,K26-PTHrP(1-31)OH

Compound | EC50 [1] | screen cAMP (% parent) [2] | EC50 [5] | screen cAMP (% parent) [6, 8] | further results
CC[C@H](C)[C@H](NC(=O)[C@H](CC(C)C)NC(=O)[C@H](CCCCN)NC(=O)[C@H](CC(C)C)NC(=O)[C@H](CC(C)C)NC(=O)[C@H](Cc1ccccc1)NC(=O)[C@H](CO)NC(=O)[C@H](CCCNC(=N)N)NC(=O)[C@H](CCCNC(=N)N)NC(=O)[C@H](CCCNC(=N)N)NC(=O)[C@H](C)NC(=O)[C@H](CC(=O)O)NC(=O)[C@H](CCC(N)=O)NC(=O)[C@@H](NC(=O)[C@H](CO)NC(=O)[C@H](CCCCN)NC(=O)CNC(=O)[C@H](CCCCN)NC(=O)[C@H](CC(=O)O)NC(=O)[C@H](Cc1c[nH]cn1)NC(=O)[C@H](CC(C)C)NC(=O)[C@H](CC(C)C)NC(=O)[C@H](CCC(N)=O)NC(=O)[C@H](Cc1c[nH]cn1)NC(=O)[C@H](CCC(=O)O)NC(=O)[C@H](CO)NC(=O)[C@@H](NC(=O)[C@H](C)N)C(C)C)[C@@H](C)CC)C(N)=O [A18, S22, L25, K26-PTHrP(1-28)NH, A18,S22,L25,K26-PTHrP(1-28)] (H-AVSEHQLLHDKGKSIQDARRRSFLLKLI-NH2; N-terminus assumed) | 0.009 nM | 367 % parent |  |  | IC50 ([3]; Table 3, read-out: dose-response human PIR RG (IC50 nM)): 0.1 nM
CC[C@H](C)[C@H](NC(=O)[C@H](CC(C)C)NC(=O)[C@H](CCCCN)NC(=O)[C@H](CC(C)C)NC(=O)[C@H](CC(C)C)NC(=O)[C@H](Cc1ccccc1)NC(=O)[C@H](CO)NC(=O)[C@H](CCCNC(=N)N)NC(=O)[C@H](CCCNC(=N)N)NC(=O)[C@H](CCCNC(=N)N)NC(=O)[C@H](CCC(=O)O)NC(=O)[C@H](CC(=O)O)NC(=O)[C@H](CCC(N)=O)NC(=O)[C@@H](NC(=O)[C@H](CO)NC(=O)[C@H](CCCCN)NC(=O)CNC(=O)[C@H](CCCCN)NC(=O)[C@H](CC(=O)O)NC(=O)[C@H](Cc1c[nH]cn1)NC(=O)[C@H](CC(C)C)NC(=O)[C@H](CC(C)C)NC(=O)[C@H](CCC(N)=O)NC(=O)[C@H](Cc1c[nH]cn1)NC(=O)[C@H](CCC(=O)O)NC(=O)[C@H](CO)NC(=O)[C@@H](NC(=O)[C@H](C)N)C(C)C)[C@@H](C)CC)C(N)=O [E18, S22, L25, K26-PTHrP(1-28)NH, E18,S22,L25,K26-PTHrP(1-28)] (H-AVSEHQLLHDKGKSIQDERRRSFLLKLI-NH2; N-terminus assumed) | 0.055 nM | 337 % parent |  |  | 
AVSEHQLLHDKGKSIQDARRRAFLKKLI [A18, 22, K25, 26-PTHrP(1-28)NH, A18,22,K25,26-PTHrP(1-28)] | 0.012 nM | 349 % parent |  |  | 
AVSEHQLLHDKGKSIQDARRRSFLHKLI [A18, S22, K26-PTHrP(1-28)NH, A18,S22,K26-PTHrP(1-28)] | 0.038 nM | 372 % parent |  |  | screen human PIR R0 (% parent) [4]: 155 % parent; screen human PIR RG (% parent) ([3]; parent PTHrP(1-28)NH): 175 % parent
AVSEHQLLHDKGKSIQDARRRSFLKKLI [A18, S22, K25, 26-PTHrP(1-28)NH, A18,S22,K25,26-PTHrP(1-28)] | 0.015 nM | 316 % parent |  |  | 
AVSEHQLLHDKGKSIQDERRRAFLKKLI [E18, A22, K25, 26-PTHrP(1-28)NH, E18,A22,K25,26-PTHrP(1-28)] | 0.054 nM | 323 % parent |  |  | 
AVSEHQLLHDKGKSIQDERRRAFLLKLIAEAHTA [E18, A22, L25, K26, A31-PTHrP(1-34)OH, E18,A22,L25,K26,A31-PTHrP(1-34)] |  |  | 0.15 nM |  | screen cAMP (% parent) [6, 7]: 249 % parent
AVSEHQLLHDKGKSIQDERRRAFLLKLIAEI [E18, A22, L25, K26-PTHrP(1-31)OH, E18,A22,L25,K26-PTHrP(1-31)] |  |  | 0.78 nM | 100 % parent | 
AVSEHQLLHDKGKSIQDERRRAFLLKLIAEIHTA [E18, A22, L25, K26-PTHrP(1-34)OH, E18,A22,L25,K26-PTHrP(1-34)] |  |  | 0.45 nM |  | screen cAMP (% parent) [6, 7]: 100 % parent
AVSEHQLLHDKGKSIQDERRRAFLLKLIAEL [E18, A22, L25, K26, L31-PTHrP(1-31)OH, E18,A22,L25,K26,L31-PTHrP(1-31)] |  |  | 0.25 nM | 198 % parent | 
AVSEHQLLHDKGKSIQDERRRAFLLKLIAKI [E18, A22, L25, K26, K30-PTHrP(1-31)OH, E18,A22,L25,K26,K30-PTHrP(1-31)] |  |  | 0.2 nM | 245 % parent | 
AVSEHQLLHDKGKSIQDERRRAFLLKLIASI [E18, A22, L25, K26, S30-PTHrP(1-31)OH, E18,A22,L25,K26,S30-PTHrP(1-31)] |  |  | 0.12 nM | 331 % parent | 
AVSEHQLLHDKGKSIQDERRRAFLLKLIKEI [E18, A22, L25, K26, K29-PTHrP(1-31)OH, E18,A22,L25,K26,K29-PTHrP(1-31)] |  |  | 0.28 nM | 227 % parent | 
AVSEHQLLHDKGKSIQDERRRAFLLKLIQDVHNF [E18,A22,L25,K26,Q29,D30,V31,N33,F34-PTHrP(1-34)] |  |  | 0.56 nM |  | screen cAMP (% parent) [6, 7]: 204 % parent
AVSEHQLLHDKGKSIQDERRRAFLLKLIQEI [E18, A22, L25, K26, Q29-PTHrP(1-31)OH, E18,A22,L25,K26,Q29-PTHrP(1-31)] |  |  | 0.59 nM | 226 % parent | 
AVSEHQLLHDKGKSIQDERRRAFLLKLISEI [E18, A22, L25, K26, S29-PTHrP(1-31)OH, E18,A22,L25,K26,S29-PTHrP(1-31)] |  |  | 0.41 nM | 209 % parent | 
